In article PMC6703856 (Biochemistry, 2019):
Where two headings read alike, the source gives them in different places.

Columns and labels:
MBP I329W mutant = MBP I329W mutant (Escherichia coli, UniProt P0AEX9, I355W); experiment: Maltose fluorescence titration, peak wavelength of tryptophan fluorescence; type: binding; settings: I329W mutant relative to wild-type protein
[1] = system: NBD-labelled MBP (cysteine mutation at Ser337); type: binding, Escherichia coli

Molecule | increase in maltose binding affinity (MBP I329W mutant) [fold] | weakening of maltose affinity by the NBD dye ([1]; monitored by NBD fluorescence intensity) [fold] | weakening of maltose affinity by the NBD dye ([1]; monitored by peak wavelength of tryptophan fluorescence) [fold] | increase in maltose Kd;app ([1]; 100 g/L BSA, NBD fluorescence) [fold]
OC[C@H]1O[C@H](O[C@H]2[C@H](O)[C@@H](O)C(O)O[C@@H]2CO)[C@H](O)[C@@H](O)[C@@H]1O (mixture of isomers) [maltose] | 100 | 24 | 5 | –
bovine serum albumin [BSA] | – | – | – | 16
